Data from article PMC10892871 (Viruses, 2024).
Like-named read-outs stand apart in the source and are kept apart here.

Assays:
wild type B.1 SARS-CoV-2 = format: cell-based
in vitro = conditions: monkey
[1] = DAA, concentration causing 10% cytotoxicity

Row | Compound | IC50 (wild type B.1 SARS-CoV-2; read-out: IC50 vs. B.1 Mean ± SD) [µM] | IC90 (wild type B.1 SARS-CoV-2; read-out: IC90 vs. B.1 Mean ± SD) [µM] | CC10 Mean ± SD (VERO E6 cells; [1]) [µM] | CC50 (VERO E6 cells; read-out: CC50 Mean ± SD, DAA) [µM] | IC90 vs. B.1 Mean ± SD (wild type B.1 SARS-CoV-2) [µg/mL] | CC10 Mean ± SD (VERO E6 cells; mAb) [µg/mL] | CC50 Mean ± SD (VERO E6 cells; mAb) [µg/mL] | CC50 (in vitro) [µM]
1 | O=c1nc(NO)ccn1[C@@H]1O[C@H](CO)[C@@H](O)[C@H]1O [EIDD-1931, reference compound] | 2.4 ± 0.4 | 2.5 ± 0.1 | 3.1 ± 0.4 | 43.3 ± 6 | – | – | – | –
2 | cilgavimab | – | – | – | – | 1.385 ± 0.862 | >0.36 | >0.36 | –
3 | CC(C)(C)[C@H](NC(=O)C(F)(F)F)C(=O)N1C[C@H]2[C@@H]([C@H]1C(=O)N[C@H](C#N)C[C@@H]1CCNC1=O)C2(C)C [NRM, nirmatrelvir, reference compound] | – | – | 2.9 ± 0.2 | – | – | – | – | 40.7 ± 4
4 | bebtelovimab | – | – | – | – | 0.089 ± 0.009 | >0.06 | >0.06 | –
5 | CCC(CC)COC(=O)[C@H](C)N[P@](=O)(OC[C@H]1O[C@@](C#N)(c2ccc3c(N)ncnn23)[C@H](O)[C@@H]1O)Oc1ccccc1 [RDV, remdesivir, reference compound] | – | – | 4.2 ± 0.6 | – | – | – | – | 17.2 ± 0.2
6 | sotrovimab | – | – | – | – | 1.718 ± 0.594 | >2.4 | >2.4 | –
7 | tixagevimab | – | – | – | – | 0.305 ± 0.071 | >0.36 | >0.36 | –
